This note sets out measurements from US20250325687A1, “CONJUGATE COMPRISING TOLL-LIKE RECEPTOR AGONIST” (MABSOFT THERAPEUTICS (SHANGHAI) CO., LTD., priority 2022, published 2025).

The structures appear in SMILES notation. Read-outs that look alike come from different tables or passages of the source. Where only a bound is given, the exact number is not on record here.

Holding throughout (assay type): cell-based
Assay [1] addresses T1, hTLR7 (human Toll-like receptor 7) (Homo sapiens, UniProt Q9NYK1).
T1 construct: host or cells: HEK-Blue hTLR7 (HEK293-derived reporter cells)
T1 sequence (Q9NYK1 27-1049): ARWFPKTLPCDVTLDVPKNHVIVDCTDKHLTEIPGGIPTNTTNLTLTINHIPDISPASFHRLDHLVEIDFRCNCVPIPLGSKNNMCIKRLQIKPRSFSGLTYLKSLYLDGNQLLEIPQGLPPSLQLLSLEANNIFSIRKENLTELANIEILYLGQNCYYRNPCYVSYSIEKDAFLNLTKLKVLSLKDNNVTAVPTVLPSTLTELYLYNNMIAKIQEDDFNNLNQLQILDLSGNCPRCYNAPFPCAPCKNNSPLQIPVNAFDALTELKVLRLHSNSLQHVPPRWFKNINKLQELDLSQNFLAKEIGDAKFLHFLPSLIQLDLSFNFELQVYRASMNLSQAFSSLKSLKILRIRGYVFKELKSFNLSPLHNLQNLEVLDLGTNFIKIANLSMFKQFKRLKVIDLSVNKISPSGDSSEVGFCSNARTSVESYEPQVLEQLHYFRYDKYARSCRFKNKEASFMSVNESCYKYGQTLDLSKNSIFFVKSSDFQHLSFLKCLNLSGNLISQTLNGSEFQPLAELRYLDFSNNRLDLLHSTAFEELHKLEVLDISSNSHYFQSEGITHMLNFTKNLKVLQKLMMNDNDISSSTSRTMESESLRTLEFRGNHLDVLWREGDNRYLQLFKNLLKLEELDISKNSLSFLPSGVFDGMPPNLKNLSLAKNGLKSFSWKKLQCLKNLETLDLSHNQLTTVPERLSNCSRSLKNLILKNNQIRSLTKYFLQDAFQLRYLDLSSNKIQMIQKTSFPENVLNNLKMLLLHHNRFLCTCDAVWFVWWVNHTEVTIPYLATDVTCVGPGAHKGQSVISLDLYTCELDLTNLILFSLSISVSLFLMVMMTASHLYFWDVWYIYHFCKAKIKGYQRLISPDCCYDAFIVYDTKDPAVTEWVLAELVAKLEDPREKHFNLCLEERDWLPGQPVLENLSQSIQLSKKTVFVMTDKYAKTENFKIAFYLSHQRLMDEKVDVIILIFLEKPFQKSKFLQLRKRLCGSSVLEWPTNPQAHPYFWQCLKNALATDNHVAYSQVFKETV
Nature of the assay: hTLR7 cell assay (HEK-Blue hTLR7 reporter cells). To be noted: 24 hours, OD 650 nm. As to the method:
(§1) The payload compounds of Formula (II′) were assayed to evaluate their agonistic activity on hTLR7 (human Toll-like receptor 7) and hTLR8 (human Toll-like receptor 8). Reporter cells lines (HEK-Blue hTLR7 and HEK-Blue hTLR8) were obtained from InvivoGen. Cells were cryopreserved in liquid nitrogen per supplier's instruction. Upon test, the cells were thawed, passaged and cultured in the growth media of DMEM supplemented with 10% fetal bovine serum, 1×NEAA, 1 mM Pyruvate, 2 mM glutamine, […] in the presence of the following antibiotics, as shown as Table 1. Test compounds (at desired concentrations diluted) were added to the 96-well assay plate, 0.5 μL per well. Reporter cells were harvested from the tissue culture flasks by incubation in PBS at 37° C. for two minutes after the media in the flask is removed and cells rinsed with PBS. Cells were counted and diluted in the HEK-Blue Detection media at 50000 cells/mL and incubated for 24 hours at 37° C., in a 5% CO2 humidified incubator. Then 20 μL of cell supernatant were added to the assay plate containing the 180 µL of QUANTI-Blue, incubated for 1 hour at 37° C. Optical density at 650 nm was analyzed using an Envision (Perkin Elmer) plate reader.

Assay [2] deals with T2, hTLR8 (human Toll-like receptor 8) (Homo sapiens, UniProt Q9NR97).
T2 construct: host or cells: HEK-Blue hTLR8 (HEK293-derived reporter cells)
T2 sequence (Q9NR97 27-1041): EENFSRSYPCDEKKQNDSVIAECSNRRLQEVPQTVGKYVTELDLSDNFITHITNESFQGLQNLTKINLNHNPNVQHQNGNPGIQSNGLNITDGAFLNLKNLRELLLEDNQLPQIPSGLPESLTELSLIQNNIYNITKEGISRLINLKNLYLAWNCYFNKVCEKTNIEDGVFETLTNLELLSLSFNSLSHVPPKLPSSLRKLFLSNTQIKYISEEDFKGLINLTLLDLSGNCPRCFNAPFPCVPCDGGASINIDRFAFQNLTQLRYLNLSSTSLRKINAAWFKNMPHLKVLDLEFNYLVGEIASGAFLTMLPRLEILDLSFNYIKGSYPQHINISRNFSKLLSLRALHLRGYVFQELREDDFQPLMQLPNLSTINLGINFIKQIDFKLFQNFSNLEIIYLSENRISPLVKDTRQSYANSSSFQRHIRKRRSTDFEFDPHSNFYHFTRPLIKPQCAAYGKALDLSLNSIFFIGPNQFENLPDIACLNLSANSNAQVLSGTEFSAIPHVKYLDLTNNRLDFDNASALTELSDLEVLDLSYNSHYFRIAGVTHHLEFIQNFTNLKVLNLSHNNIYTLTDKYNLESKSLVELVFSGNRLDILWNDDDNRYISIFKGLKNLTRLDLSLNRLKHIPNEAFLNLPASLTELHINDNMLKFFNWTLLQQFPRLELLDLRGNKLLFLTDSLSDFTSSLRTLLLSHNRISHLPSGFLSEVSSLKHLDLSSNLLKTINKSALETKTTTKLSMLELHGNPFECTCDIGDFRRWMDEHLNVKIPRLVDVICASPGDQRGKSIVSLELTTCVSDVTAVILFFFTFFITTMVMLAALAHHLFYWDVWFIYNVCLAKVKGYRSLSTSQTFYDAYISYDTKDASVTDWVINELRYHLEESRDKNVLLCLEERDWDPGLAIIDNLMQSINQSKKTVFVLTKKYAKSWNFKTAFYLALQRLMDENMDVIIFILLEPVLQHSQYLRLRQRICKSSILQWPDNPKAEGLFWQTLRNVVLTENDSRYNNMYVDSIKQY
Nature of the assay: hTLR8 cell assay (HEK-Blue hTLR8 reporter cells). The note with it: 24 hours, OD 650 nm. As to the method: as §1

Assay [3] deals with human PBMC (human peripheral blood mononuclear cells). Briefly: PBMC screening assay: induction of TNF-α production. The note with it: read-out: EC50 (μM) TNF-α (hPBMC). As to the method:
The payload compounds of Formula (II′) were assayed to evaluate the induction of TNF-α production in human PBMC (human peripheral blood mononuclear cells).
Human peripheral blood mononuclear cells (PBMC) were obtained from Allcells. […] PBMC were incubated for 24 hours at 37° C. in a 5% CO2 humidified incubator. The following day PBMC plates were centrifuged at 500×g for 5 minutes and the growth media was removed. 200 μL of compound prepared in growth media at a series of diluted concentrations ranging from 2.54 nM to 50 μM were added to PBMC in duplicate and incubated for 24 hours at 37° C. in a 5% CO2 incubator. Prior to supernatant harvest, cells were spun at 500×g for 5 minutes to remove cell debris. TNF-α activity was assessed in the supernatant by ELISA (Elabscience) per the manufacturer's instructions. Optical density at 450 nm (ELISA) was analyzed using a plate reader.

Where [4] appears, read: human PBMC, 24 hours, TNF-α by ELISA, class symbols.

In the case of `CCCCc1nc2c(N)nc3cc(Cc4ccc(C(C)(C)CN)cc4)ccc3c2n1CC(C)(C)O` [Compound 70, 1-(4-amino-7-(4-(1-amino-2-methylpropan-2-yl)benzyl)-2-butyl-1H-imidazo[4,5-c]quinolin-1-yl)-2-methylpropan-2-ol], the concentration for a half-maximal effect (EC50) in assay [1] was less than 1000 nM; in assay [2] it was less than 5000 nM; in assay [3] (setting [4]), less than 0.64 µM.
The matching figures for `CCCCc1nc2c(N)nc3cc(Cc4ccc(CN)s4)ccc3c2n1CC(C)(C)O` [Compound 69, 1-(4-amino-7-((5-(aminomethyl)thiophen-2-yl)methyl)-2-butyl-1H-imidazo[4,5-c]quinolin-1-yl)-2-methylpropan-2-ol]: less than 1000 nM, less than 5000 nM and less than 0.64 µM.
The matching figures for `CCCCc1nc2c(N)nc3cc(Cc4ccc5c(c4)CNCC5)ccc3c2n1CC(C)(C)O` [Compound 60, 1-(4-amino-2-butyl-7-((1,2,3,4-tetrahydroisoquinolin-7-yl)methyl)-1H-imidazo[4,5-c]quinolin-1-yl)-2-methylpropan-2-ol]: less than 1000 nM, less than 5000 nM and less than 0.64 µM.
Consider `CCCCc1nc2c(N)nc3cc(Cc4cccc(CCCN)c4)ccc3c2n1CC(C)(C)O` [Compound 18, 1-(4-amino-7-(3-(3-aminopropyl)benzyl)-2-butyl-1H-imidazo[4,5-c]quinolin-1-yl)-2-methylpropan-2-ol], for which the half-maximal effective concentration (EC50) is less than 1000 nM in assay [1]; 5000 to 20000 nM in assay [2]; more than 0.64 µM in assay [3] (Homo sapiens, PBMC, 24 h).
For `CCCCc1nc2c(N)nc3cc(Cc4ccc5c(c4)C(N)CCC5)ccc3c2n1CC(C)(C)O` (centres unmarked) [Compound 57, 1-(4-amino-7-((8-amino-5,6,7,8-tetrahydronaphthalen-2-yl)methyl)-2-butyl-1H-imidazo[4,5-c]quinolin-1-yl)-2-methylpropan-2-ol], in that order: less than 1000 nM, less than 5000 nM and less than 0.64 µM.
With `CCCCc1nc2c(N)nc3cc(Cc4ccc5c(c4)CC(N)CC5)ccc3c2n1CC(C)(C)O` (centres unmarked) [Compound 58, 1-(4-amino-7-((7-amino-5,6,7,8-tetrahydronaphthalen-2-yl)methyl)-2-butyl-1H-imidazo[4,5-c]quinolin-1-yl)-2-methylpropan-2-ol], the EC50 in assay [1] was less than 1000 nM; in assay [2] it was less than 5000 nM; in assay [3] (setting [4]), less than 0.64 µM.
The matching figures for `CC(C)(O)Cn1c(COCC(F)(F)F)nc2c(N)nc3cc(Cc4cccc(CN)c4)ccc3c21` [Compound 53, 1-(4-amino-7-(3-(aminomethyl)benzyl)-2-((2,2,2-trifluoroethoxy)methyl)-1H-imidazo[4,5-c]quinolin-1-yl)-2-methylpropan-2-ol]: less than 1000 nM, less than 5000 nM and less than 0.64 µM.
On to `CCCCc1nc2c(N)nc3cc(Cc4ccc(CCN)cc4)ccc3c2n1CC(C)(C)O` [Compound 19, 1-(4-amino-7-(4-(2-aminoethyl)benzyl)-2-butyl-1H-imidazo[4,5-c]quinolin-1-yl)-2-methylpropan-2-ol], for which the concentration giving a half-maximal response (EC50) in assay [1] is less than 1000 nM; in assay [2] it was less than 5000 nM; in assay [3] (Homo sapiens, PBMC, 24 h) it was less than 0.64 µM.
Take `CCCCc1nc2c(N)nc3cc(C(C)c4cccc(CN)c4)ccc3c2n1CC(C)(C)O` (centres unmarked) [Compound 56, 1-(4-amino-7-(1-(3-(aminomethyl)phenyl)ethyl)-2-butyl-1H-imidazo[4,5-c]quinolin-1-yl)-2-methylpropan-2-ol]: the concentration for a half-maximal effect (EC50) was less than 1000 nM in assay [1], less than 5000 nM in assay [2] and less than 0.64 µM in assay [3] (setting [4]).
As to `CCOCc1nc2c(N)nc3cc(Cc4ccc(CNC(=O)CO)s4)ccc3c2n1CC(C)(C)O` [Compound 169], the 50% effective concentration (EC50) in assay [3] (setting [4]) is more than 0.64 µM.
For the compound `CCCCc1nc2c(N)nc3cc(Cc4ccc5c(c4)CCNC5)ccc3c2n1CC(C)(C)O` [Compound 59, 1-(4-amino-2-butyl-7-((1,2,3,4-tetrahydroisoquinolin-6-yl)methyl)-1H-imidazo[4,5-c]quinolin-1-yl)-2-methylpropan-2-ol], the EC50 is less than 1000 nM in assay [1], less than 5000 nM in assay [2] and less than 0.64 µM in assay [3] (setting [4]).
On to `CCCCc1nc2c(N)nc3cc(Cc4cccc(CCN)c4)ccc3c2n1CC(C)(C)O` [Compound 17, 1-(4-amino-7-(3-(2-aminoethyl)benzyl)-2-butyl-1H-imidazo[4,5-c]quinolin-1-yl)-2-methylpropan-2-ol], for which the figures for the EC50 in assay [1], in assay [2] and in assay [3] (setting [4]) were less than 1000 nM, less than 5000 nM and more than 0.64 µM, respectively.
For `CCCCc1nc2c(N)nc3cc(Cc4cccc(CN)c4)ccc3c2n1CC(C)(C)O` [Compound 16, 1-(4-amino-7-(3-(aminomethyl)benzyl)-2-butyl-1H-imidazo[4,5-c]quinolin-1-yl)-2-methylpropan-2-ol], in that order: less than 1000 nM, less than 5000 nM and less than 0.64 µM.
Take `CCOCc1nc2c(N)nc3cc(Cc4ccc(F)c(CN)c4)ccc3c2n1CC(C)(C)O` [Compound 149]: the concentration giving a half-maximal response (EC50) is less than 1000 nM in assay [1], less than 5000 nM in assay [2] and less than 0.64 µM in assay [3] (setting [4]).
For `CCOCc1nc2c(N)nc3cc(Cc4ccccc4)ccc3c2n1CC(C)(C)O` [Compound 171, 1-(4-amino-7-benzyl-2-(ethoxymethyl)-1H-imidazo[4,5-c]quinolin-1-yl)-2-methylpropan-2-ol], the EC50 in assay [3] (setting [4]) is less than 0.64 µM.
